{
  "source": "patent US5155126A",
  "about": "“Treatment of central nervous system disorders with pyrazole, pyrrole and triazole angiotensin-II receptor antagonists” (E. I. du Pont de Nemours and Company, priority 1991, dated 1992)",
  "key": {"[1]": {"tested_on": "scopolamine-induced disruption of performance", "settings": "daily treatment; in words; cited from earlier work"}, "[2]": {"tested_on": "light/dark habituation performance", "settings": "subchronic treatment; in words; cited from earlier work"}, "[3]": {"tested_on": "avoidance learning", "settings": "renin into lateral ventricle; captopril IVT prior to renin; in words; cited from earlier work"}, "[4]": {"tested_on": "renin-induced disruption of passive avoidance retention", "assay": "Renin-disrupted passive avoidance retention", "type": "in vivo, male Sprague-Dawley rats", "settings": "for effect on memory / renin-induced amnesia: IVT, in words", "method": "Experimentally naive male Sprague-Dawley rats […] (Charles River Breeding Laboratories, Kingston, N.Y.), weighing between 175 to 200 gm were used. The animals were housed four per cage (45.0 L × 20.0 H × 26.0 W cm) with free access to food and water. They were maintained on a 12 h light/dark cycle (lights on 0600 h) and at a room temperature of 22±1° C. with relative humidity of 50±10%.\nThe experimental sessions were conducted in a two-compartment passive avoidance box. One compartment, made of clear plastic with a perforated clear plastic floor, measured 21(L)=24.5(H)=17(W) cm and was illuminated with a 60 watt incandescent light bulb placed 36 cm above the floor. The other compartment, made of black plastic, measured 30.5 (L)×20.3 (H)×21.5 (W) cm with a floor made of 4 mm stainless steel rods spaced 1.2 cm apart. A grid floor shocker (Coulbourn Instruments) was connected to the steel rods and provided scrambled footshock. The two compartments were separated by a solenoid-operated slide door (Lafayette Instrument Co., Lafayette, Ind.). An electronic counter (Coulbourn Instruments), triggered by the opening or closing of the slide door, recorded acquisition and retention latencies (latencies were defined as the time it took an animal to enter the dark compartment).\nPassive avoidance training began by placing the rat into the clear compartment of the two-compartment passive avoidance box. Following a 10 sec delay, the slide door to the dark compartment was raised. Once the rat moved completely into the dark compartment (all four paws on the shock grid floor) the slide door was lowered, and after a 10 sec delay, a 1.0 mA shock was applied to the grid floor for three sec. A second three s shock was delivered after an additional 10 sec delay. The rats were immediately removed from the dark compartment and returned to their home cage. A retention test was given 24 h later. It proceeded in the same manner as the training session except that no shock was applied to the grid floor when the rats were provided access to the dark compartment for a maximum of 300 sec.\nAll drugs were administered IVT 60 minutes prior to acquisition training in a volume of 5 μL. Doses are expressed as the free base weight of each compound."}, "[5]": {"tested_on": "retention of a passive avoidance response", "settings": "injected into dorsal neostriatum; in words; cited from earlier work"}, "[6]": {"tested_on": "memory of previously learned tasks; anticholinergic effect on performance", "settings": "in words; cited from earlier work"}, "[7]": {"tested_on": "AII-1 receptor", "assay": "AII-1 receptor antagonism (statement)", "settings": "in words"}, "[8]": {"tested_on": "potassium-stimulated release of ACh in entorhinal cortex", "settings": "in vitro, entorhinal cortex from rat brain; in words; cited from earlier work"}, "[9]": {"tested_on": "AII-2 receptor (AII receptor subtype-2)", "settings": "in words; cited from earlier work"}, "[10]": {"tested_on": "scopolamine-induced impairment of eight arm radial maze performance", "settings": "3 mg/kg IP; in words; cited from earlier work"}, "[11]": {"tested_on": "uphill avoidance", "settings": "acute 30 mg/kg PO; in words; cited from earlier work"}, "[12]": {"tested_on": "ACh in the striatum and hypothalamus", "settings": "acute or repeated administration; in words; cited from earlier work"}, "[13]": {"tested_on": "scopolamine-induced PA amnesia", "settings": "three times per day at 1, 3 and 10 mg/kg PO; in words; cited from earlier work"}, "[14]": {"tested_on": "AII binding sites in the brain", "assay": "Binding of AII antagonists to sections of brain slices", "settings": "in words"}, "[15]": {"tested_on": "AII in cerebrospinal fluid", "settings": "after renin IVT; increased from 40; cited from earlier work"}},
  "note": "“And” between values parts separate entries of the source, which are not always exact repeats. Equal entries are not always repeated. “Also recorded” adds a separate entry of the source.",
  "data": [
    {"molecule": "C[C@H](CS)C(=O)N1CCC[C@H]1C(=O)O", "note": "[captopril]", "values": [
      {"measurement": "scopolamine-induced disruption of performance", "setting": "[1]", "result": "prevented"},
      {"measurement": "rate of acquisition of light/dark habituation performance", "setting": "[2]", "result": "increased the rate of acquisition"},
      {"measurement": "effect on avoidance learning", "setting": "[3]", "result": "prevented the renin-induced avoidance disruption"},
      {"measurement": "effect on memory / renin-induced amnesia", "setting": "[4]", "result": "prevented"}
    ]},
    {"molecule": "lysine-8-vasopressin", "values": [
      {"measurement": "effect on retention of a PA response", "setting": "[5]", "result": "no effect"}
    ]},
    {"molecule": "NCCCC[C@H](OP(=O)(O)CCCCc1ccccc1)C(=O)N1CCC[C@H]1C(=O)O", "note": "[SQ 29852]", "values": [
      {"measurement": "effect on anticholinergic effect on performance", "setting": "[6]", "result": "ameliorate, at least in part"},
      {"measurement": "effect on memory of previously learned tasks", "setting": "[6]", "result": "protective effects on memory of previously learned tasks"}
    ]},
    {"molecule": "CCCc1nc(C(F)(F)F)c(CO)n1Cc1ccc(-c2ccccc2-c2nnn[nH]2)cc1", "note": "[Compound D, 2-n-propyl-5-hydroxymethyl-1-[(2'-(1H-tetrazol-5-yl)biphenyl-4-yl)methyl]-4-trifluoromethylimidazole]", "values": [
      {"measurement": "AII-1 receptor antagonist activity", "setting": "[7]", "result": "AII-1 receptor antagonists"},
      {"measurement": "effect on memory / renin-induced amnesia", "setting": "[4]", "result": "protected against amnesia"}
    ]},
    {"molecule": "[1-sarcosine, 8-threonine]angiotensin-II", "values": [
      {"measurement": "effect on potassium-stimulated release of ACh", "setting": "[8]", "result": "antagonized"}
    ]},
    {"molecule": "CCCc1nc(C(F)(F)F)c(C(=O)O)n1Cc1ccc(-c2ccccc2-c2nnn[nH]2)cc1", "note": "[Compound C, 2-n-propyl-1-[(2'-(1H-tetrazol-5-yl)biphenyl-4-yl)methyl]-4-trifluoromethylimidazole-5-carboxylic acid]", "values": [
      {"measurement": "AII-1 receptor antagonist activity", "setting": "[7]", "result": "AII-1 receptor antagonists"},
      {"measurement": "effect on memory / renin-induced amnesia", "setting": "[4]", "result": "protected against amnesia"}
    ]},
    {"molecule": "NC(=O)[C@@H]1CCCN1C(=O)[C@H](Cc1cnc[nH]1)NC(=O)[C@@H]1CCC(=O)N1", "note": "[thyrotropin releasing hormone]", "values": [
      {"measurement": "effect on retention of a PA response", "setting": "[5]", "result": "no effect"}
    ]},
    {"molecule": "O[C@H](CS)[C@H](O)CS", "note": "(racemic) [DTT, dithiothreitol]", "values": [
      {"measurement": "inactivation of AII-2 receptor by DTT", "setting": "[9]", "result": "resistant to DTT inactivation"}
    ]},
    {"molecule": "CCOC(=O)C(CCc1ccccc1)NC(C)C(=O)N1CC2(CC3CCC2CC3)CC1C(=O)O", "note": "(stereo not shown) [Hoe 288]", "values": [
      {"measurement": "effect of muscarinic receptor blockade on performance", "setting": "[10]", "result": "partially antagonized the effects of muscarinic receptor blockade"},
      {"measurement": "performance during retention testing, uphill avoidance", "setting": "[11]", "result": "improved performance during retention testing"},
      {"measurement": "change of ACh in striatum and hypothalamus", "setting": "[12]", "result": "significant decrease in ACh"},
      {"measurement": "effect on scopolamine-induced PA amnesia", "setting": "[13]", "result": "partially reversed the amnesia"}
    ]},
    {"molecule": "AII: Angiotensin-II, a circulating hormone thought to act as a neuropeptide in the CNS (DRVYIHPF; Angiotensin-2; UniProt P01019 25-32, looked up)", "values": [
      {"measurement": "effect on potassium-stimulated release of ACh", "setting": "[8]", "result": "can inhibit the release of ACh"},
      {"measurement": "effect on retention of a PA response", "setting": "[5]", "result": "disruption in retention of a PA response"}
    ]},
    {"molecule": "AI: printed \"AI, but not AI\" in b14 (DRVYIHPFHL; Angiotensin-1; UniProt P01019 25-34, looked up)", "values": [
      {"measurement": "effect on potassium-stimulated release of ACh", "setting": "[8]", "result": "reduced potassium-stimulated release of ACh without effects on basal levels"}
    ]},
    {"molecule": "Cc1cc(Cn2cnc3c2CC(C(=O)O)N(C(=O)C(c2ccccc2)c2ccccc2)C3)ccc1N", "note": "(stereo not shown) [EXP655, 1-(4-amino-3-methylphenyl)methyl-5-diphenylacetyl-4,5,6,7-tetrahydro-1H-imidazo[4,5-c]pyridine-6-carboxylic acid]", "values": [
      {"measurement": "sensitivity of AII binding sites in brain", "setting": "[14]", "result": "the majority of binding sites in the brain are DTT-insensitive and EXP655-sensitive"},
      {"measurement": "effect on memory / renin-induced amnesia", "setting": "[4]", "result": "less effective in preventing amnesia"}
    ]},
    {"molecule": "renin: Renin (Sigma Chemicals), a stimulator of endogenous AII biosynthesis (protein, UniProt P00797 67-406, looked up) Renin: LTLGNTTSSVILTNYMDTQYYGEIGIGTPPQTFKVVFDTGSSNVWVPSSKCSRLYTACVYHKLFDASDSSSYKHNGTELTLRYSTGTVSGFLSQDIITVGGITVTQMFGEVTEMPALPFMLAEFDGVVGMGFIEQAIGRVTPIFDNIISQGVLKEDVFSFYYNRDSENSQSLGGQIVLGGSDPQHYEGNFHYINLIKTGVWQIQMKGVSVGSSTLLCEDGCLALVDTGASYISGSTSSIEKLMEALGAKKRLFDYVVKCNEGPTLPDISFHLGGKEYTLTSADYVFQESYSSKKLCTLAIHAMDIPPPTGPTWALGATFIRKFYTEFDRRNNRIGFALAR", "values": [
      {"measurement": "effect on avoidance learning", "setting": "[3]", "result": "disruption of avoidance learning"},
      {"measurement": "AII in cerebrospinal fluid", "setting": "[15]", "result": "about 5000 fmol per mL"},
      {"measurement": "effect on memory / renin-induced amnesia", "setting": "[4]", "result": "produces memory deficit; also recorded: dose-related amnesia"},
      {"measurement": "Median Retention Latency", "setting": "[4]; renin 1.0 μg/5 μL IVT alone", "result": "48 s and 32 s and 27 s"},
      {"measurement": "Median Retention Latency", "setting": "[4]; renin 5.0 μg/5 μL IVT alone", "result": 17, "unit": "s"}
    ]}
  ]
}
